# “Also recorded” adds a separate entry of the source.
# Experiments:
# MCF-7 cells [1] = assay: Cell proliferation assay (CCK8), MCF-7; type: cell-based, human; conditions: for proliferation of MCF-7 cells: 1 nM-10 μM, 6 days, 10% PRF-CT with 1 nM E2
# Experimental: (§1) Fig. 2 Proliferative response of cancer cells to indicated compounds. a–c the effect of concentrations of different compounds on the growth of the cells. […] Cell growth was measured as described in the “Materials and methods”. The proliferation of cells is expressed as the ratio of the cells compared with the control wells (untreated cells). d, e Influence of different compounds on the cell cycle of MCF-7 cells. MCF-7 cells were cultured in 10% PRF-CT with E2 (1 nM) for 3 days before plating. Cells were seeded in six-well plates and, the next day, starved in PRF for 24 h. Cells were exposed to different compounds at a concentration of 100 nM for 72 h, and then subjected to cell-cycle analysis as described in “Materials and methods”. f MCF-7 cells on poly-L-lysine-coated glass coverslips were exposed to compounds (100 nM) in 10% PRF-CT with 1 nM E2 for 72 h. Control cells were treated with vehicle. DAPI stains DNA, and the secondary anti-mouse antibody to detect the antibody bound to Ki-67 is labeled with the cyanine dye Cy3. The cells were stained with DAPI (blue). Immunofluorescence staining of Ki-67 of cells was observed using fluorescence microscope. Red: Ki-67; blue: nucleus.Typical image is shown. Scale bars: 10 μm. Data represent a mean ± SEM of three independent experiments, each in triplicate; bars, SEM. *P ≤ 0.05 vs. control
# (§2) After 24 h, cells were exposed for 3–6 days to various concentrations of compounds (1 nM– 10 μM) or left untreated. The incubation time and the compounds concentrations were chosen based on previous studies[17],[32]–[34]. The effects of the various drugs on cell proliferation at the indicated concentrations (1 nM– 10 μM) were determined by using a CCK8 kit (Dojindo Laboratories, Kumamoto, Japan) according to the manufacturer’s protocol. The absorbance at 450 nm was measured by using a Versamax microplate reader (Thermo Varioskan Flash, USA). Cell growth is expressed as the ratio of the cells compared with the control wells (untreated cells).
# ZR-75-1 cells = assay: Cell proliferation assay (CCK8), ZR-75-1; type: cell-based, human; conditions: for proliferation of ZR-75-1 cells: 1 nM-10 μM, 6 days, 10% PRF-CT with 1 nM E2
# Experimental: as §1, §2
# MCF-7 cells [2] = assay: Cell cycle analysis by flow cytometry; type: cell-based, human; conditions: 100 nM, 72 h
# Experimental: Fig. 2 Proliferative response of cancer cells to indicated compounds. a–c the effect of concentrations of different compounds on the growth of the cells. Cells were cultured in 10% PRF-CT with E2 1 nM (MCF-7 and ZR-75-1) or without E2 (MDA-MB-231) for 3 days before plating. Cells were seeded in 96-well plates and 24 h later they were exposed to different concentrations (1 nM– 10 μM) of compounds for 6 days (MCF-7 and ZR-75-1) or 3 days (MDA-MB-231). Cell growth was measured as described in the “Materials and methods”. The proliferation of cells is expressed as the ratio of the cells compared with the control wells (untreated cells). d, e Influence of different compounds on the cell cycle of MCF-7 cells. MCF-7 cells were cultured in 10% PRF-CT with E2 (1 nM) for 3 days before plating. Cells were seeded in six-well plates and, the next day, starved in PRF for 24 h. Cells were exposed to different compounds at a concentration of 100 nM for 72 h, and then subjected to cell-cycle analysis as described in “Materials and methods”. f MCF-7 cells on poly-L-lysine-coated glass coverslips were exposed to compounds (100 nM) in 10% PRF-CT with 1 nM E2 for 72 h. Control cells were treated with vehicle. DAPI stains DNA, and the secondary anti-mouse antibody to detect the antibody bound to Ki-67 is labeled with the cyanine dye Cy3. The cells were stained with DAPI (blue). Immunofluorescence staining of Ki-67 of cells was observed using fluorescence microscope. Red: Ki-67; blue: nucleus.Typical image is shown. Scale bars: 10 μm. Data represent a mean ± SEM of three independent experiments, each in triplicate; bars, SEM. *P ≤ 0.05 vs. control
# Cell cycle kinetics were studied by flow cytometry. MCF-7 cells were cultured in 10% PRF–CT with 1 nM E2 for 3 days prior to seeding on six-well plates (10^5 cells/well). Following seeding of cells, cells were serum starved for 24 h, and then treated with media containing 100 nM of the test compounds for 72 h. Cell-cycle analysis was performed as described by Ando[20].
# [3] = test system: prostate (P), seminal vesicle (SV), levator ani muscle (LA); assay: Hershberger assay in orchiectomized rats; type: in vivo, Wistar male rats; conditions: for androgenic effect (P and SVs): 10 mg/kg s.c. once a day
# Experimental: Fig. 5 Estimation of the androgenic and myotrophic activities of the indicated compounds obtained by the Hershberger Assay. Wistar male rats were orchiectomized (orchi) or sham-operated (intact) under ether anesthesia. After 14 days of endogenous hormonal decline, animals were randomly allocated to treatment and vehicle groups (n = 6). The numbers at the end of the abbreviations correspond to the dose in mg/kg body weight of the animal. Flutamide was given by gavage (10 mg/kg/day). […] Then the animals were treated once a day. The rats were sacrificed after completion of the 12-day treatment. Following removal, wet weights of the prostate (P), seminal vesicle (SV), levator ani muscle (LA) were determined. a Size and shape of P, SV and LA at the end of the treatment period. b, c, and d, influence of treatment with the compounds alone or together with the antiandrogen flutamide at the indicated doses on the weight of the organs (P, SV and LA) of the castrated animals. The mean wet weight is represented by the bars in the graphs. Values are means ± SEM; bars, SEM. *P ≤ 0.05, **P ≤ 0.01 vs. control
# The Hershberger assay was performed according to the guidelines of the rodent Hershberger assay. Male Wistar rats (140 g, 5–6 weeks) were orchiectomized (orchi) or sham-operated (intact) under ether anesthesia. After 14 days of endogenous hormonal decline, animals were randomly allocated to treatment and vehicle groups (n = 6); orchi group = orchi rats receiving sham injections; intact group = sham-operated rats receiving sham injections; treatment group = orchi rats receiving drugs injections by subcutaneous. The antiandrogen flutamide given by gavage (10 mg/kg/day). Drugs were dissolved in ethanol and diluted in corn oil. The animals were treated once a day. Rats were sacrificed after completion of the 12-day treatment. Following removal, the wet weights of the P, SV, and LA muscle were determined. The data of tissue weights are presented as mean ± SEM.
# [4] = test system: ER(+) breast cancer (luminal A tumors); design: method as in printed; conditions: daily topical application to the affected breast, within 40 days; earlier work of the authors, ref not given; cited from earlier work
# [5] = test system: AR protein in MCF-7 cells; assay: AR protein expression by western blot and immunofluorescence; type: cell-based, human; conditions: incubation 3 days
# Experimental: Fig. 3 Influence of indicated compounds on the expression of the AR. […] AR protein expression was analyzed by western blot as described in “Materials and methods”. b The densitometric evaluation of the bands is calculated by ImageJ. The numbers represent the densitometric value relative to untreated control. […] Typical image is shown. Scale bars: 10 μm
# Total cell proteins were obtained from 70% confluent cell cultures. Protein extracts of whole cells (50 μg) were denatured, separated by SDS–PAGE and transferred to polyvinylidene fluoride membranes. After blocking with 3% bovine serum albumin in Tris-buffered saline-Tween, membranes were probed overnight at 4 °C. […] After incubation with the appropriate secondary antibody, results were detected using ECL detection reagents. Immunoreactive bands were quantified by densitometry using ImageJ software.
# MCF-7 cells were seeded on 24-well plates (2 × 10^4 cells/well) with a poly-L-lysine-coated glass coverslip per well in 10% PRF–CT. […] Cells were visualized with a ×40 objective and a Qimaging digital camera coupled to an Olympus X71 fluorescence microscope using a red fluorescent protein filter.
# androgenic organs = test system: androgenic organs; design: method as in PMID 404132; conditions: doses of 3 and 10 mg/kg; cited from earlier work
# [6] = target: T1, Rat AR ligand-binding domains (His-GST-ARLBD) (Rattus norvegicus, UniProt P15207); assay: AR fluorescence polarization-based competitive hormone-binding assay (PolarScreen AR Competitor Assay, Red)
# T1 construct: purchased Invitrogen
# T1 sequence (P15207 651-882 limits assumed): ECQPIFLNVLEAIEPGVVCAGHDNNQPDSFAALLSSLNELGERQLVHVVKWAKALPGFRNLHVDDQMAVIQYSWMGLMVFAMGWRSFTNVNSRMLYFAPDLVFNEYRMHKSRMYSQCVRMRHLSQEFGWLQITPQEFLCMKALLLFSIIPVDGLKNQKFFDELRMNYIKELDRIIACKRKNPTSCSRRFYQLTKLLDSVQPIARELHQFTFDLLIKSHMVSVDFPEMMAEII
# Source text: Fig. 4 The affinity of indicated compounds to the AR and their regulation of AR transcriptional activity. a AR fluorescence polarization-based competitive hormone-binding assays. […] Curve fitting was done using GraphPad Prism software (version 7.00). […] ARE(3×)-regulated dual-luciferase activity in U2-OS cells under steroid-free conditions. Cells were transiently transfected with pcDNA3.1-AR and ARE3-luc2P (firefly luciferase reporter plasmids) and the internal normalization control pRL-TK (Renilla luciferase reporter plasmid). Six hours after transfection, cells were treated as indicated. Then they were assayed 48 h after transfection for dual-luciferase activity. […] Briefly, compounds were dissolved in DMSO and mixed at 2% (vol/vol) with AR Red Screening Buffer. The tested compounds were subsequently serially diluted in two-fold increments with AR Red Screening Buffer and mixed 1:1 (vol/vol) with a 2 × AR/Fluormone AL complex. Competition for binding AR between Fluormone AL and the tested compounds was allowed to come to equilibrium for 4 h and not more than 20 h at room temperature in the dark. Fluorescence polarization value (mP) was measured on a fluorescence polarization plate reader (Biotech cytation5). Each compound dose was performed in triplicate, relative error was calculated from the standard error of the mean (SEM), and curve fitting was performed using GraphPad Prism™ 7.0 software.
# [7] = 100 nM compound with 100 nM OH-Flutamide
smiles,measurement,setting,value
"C[C@]12CCC(=O)C(O)=C1CC[C@@H]1[C@@H]2CC[C@]2(C)C(=O)CC[C@@H]12 [4-OHA, 4-hydroxyandrostenedione]",proliferation of MCF-7 cells,MCF-7 cells [1],some antiproliferative action
same,proliferation of ZR-75-1 cells,ZR-75-1 cells,no effect on the growth
same,"influence on the cell cycle (G1/G0 increase, S-phase decrease)",MCF-7 cells [2],apparently more effective than Exemestane and 17-HEXE
same,androgenic effect (P and SVs),"[3]; 12 days, castrated rats",no effect on P and SVs
same,androgenic effect (P and SVs),"[3]; 12 days, castrated rats, listed as Formestane",no effect on androgenic organs whatsoever
same,reduction of tumor size (regression),[4],more than 50%
C=C1C[C@@H]2[C@H](CC[C@]3(C)C(=O)CC[C@@H]23)[C@@]2(C)C=CC(=O)C=C12 [Exemestane],proliferation of MCF-7 cells,MCF-7 cells [1],less effective
same,proliferation of ZR-75-1 cells,ZR-75-1 cells,less effective
same,expression of the AR protein,[5],considerably more effective than Formestane
same,androgenic effect (P and SVs),"[3]; 12 days, castrated rats",slightly androgenic; also recorded: the same effect
same,androgenic activity,androgenic organs,slight androgenic activity
"CC(C)C(=O)Nc1ccc([N+](=O)[O-])c(C(F)(F)F)c1 [Flutamide, flutamide]",prevention of androgenic effects of the test compounds,"[3]; Flutamide by gavage 10 mg/kg/day, concomitant",All androgenic effects can be eliminated
C[C@@H]1CC2=CC(=O)CC[C@@H]2[C@H]2CC[C@@]3(C)[C@@H](CC[C@]3(C)O)[C@@H]21 [Mibolerone],IC50,[6],11.8 nM
same,proliferation of MCF-7 cells,MCF-7 cells [1],antiproliferative in two ER(+)/AR(+) cell lines at all concentrations
same,proliferation of ZR-75-1 cells,ZR-75-1 cells,antiproliferative in two ER(+)/AR(+) cell lines at all concentrations
same,"effect on P, SVs and LA compared with DHT","[3]; 0.5 mg/kg s.c. once a day, 12 days, castrated rats",more effective than DHT
"CC(C)(O)C(=O)Nc1ccc([N+](=O)[O-])c(C(F)(F)F)c1 [OH-Flutamide, hydroxyflutamide]","antiproliferative effect in presence of OH-Flutamide, MCF-7",MCF-7 cells [1]; [7],the antiproliferative effect of DHT is almost completely abolished
same,"antiproliferative effect in presence of OH-Flutamide, ZR-75-1",ZR-75-1 cells; [7],the antiproliferative effect of DHT is almost completely abolished
